In US20060134095A1, “Antioxidative composition and composition for external use” (priority 2003, published 2006):

Key:
[1] = hydroxy radical scavenging activity by ESR spin trapping (H2O2/FeSO4, DMPO); details: for Remaining amount of hydroxyl radicals: relative signal intensity (DMPO-OH/MnO); for hydroxyl radical scavenging activity (in words) / hydroxyl radical scavenging activity compared with pro-vitamin C (A2P: ascorbic acid-2-phosphate Na): ESR spin trapping, Table 2
Description: (1) With regard to the foregoing samples, according to the direction in the following Table 1, the sample was put into a 1.5 ml Eppendorf tube, H2O2 was added, and reaction was carried out for 30 seconds after the addition for H2O2. Subsequently, the measurement was carried out by ESR, and the hydroxy radical scavenging activities of the fullerenes measured by the ESR spin trapping method were evaluated.
For preparation of the reagents, milli Q was used. As for the ESR apparatus, JES-FR30 (JEOL Co.) was used, and measurement was carried out using a high sensitive ESR water-soluble flat cell (LABOTEC Co.). The measurement conditions of ESR were as follows. Power: 4 mW, Field: 336±5, Sweep Time: 1 min., Modulation Width: 0.32 mT, Amp: 400, Response Time: 0.3 sec. Evaluation was performed with the ratio of the signal amplitude of OH to that of the paramagnetic internal standard, MnO.

[2] = superoxide scavenging activity by ESR spin trapping (hypoxanthine/xanthine oxidase, DMPO)
Description: (2) In addition, according to the direction in the following Table 3, each of the samples was put into a 1.5 ml Eppendorf tube, XOD was added, and reaction was carried out for 30 seconds. Subsequently, the measurement was carried out by ESR, whereby the superoxide scavenging activities measured by ESR spin trapping were evaluated. The measuring method was according to the case of the hydroxyl radical.
The measurement conditions of ESR were as follows. Power: 4 mW, Field: 336±5, Sweep Time: 1 min., Modulation Width: 0.1 mT, Amp: 790, Response Time: 0.3 sec. Evaluation was performed with the ratio of the signal amplitude of O2 to that of the paramagnetic internal standard, MnO.

[3] = tested on: human skin epidermal keratinocytes; assay: antioxidative effect against UVB in keratinocytes (CDCFH-DA fluorescence, intracellular peroxide/hydrogen peroxide); format: cell-based; details: UVB 40 mJ/cm^2, samples added before irradiation, FIG. 1
Description: (3) With regard to various samples, their antioxidative effects against UVB were evaluated by using keratinocytes, a human major cell type.
The results are shown in Pig. 1.

Remaining amount of hydroxyl radicals ([1]; sample 9.26 μM, solubilized in 70% ethanol, diluted to 0.2%, control 3.0)	Compound	Remaining amount of hydroxyl radicals ([1]; ethanol, concentration not given, control (Milli-Q water) 3.0)	Remaining amount of superoxide anion radical ([2]; relative signal intensity (DMPO-OOH/MnO), ethanol, concentration not given, control (Milli-Q water) 3.0)	hydroxyl radical scavenging activity (in words) [1]	hydroxyl radical scavenging activity compared with pro-vitamin C (A2P: ascorbic acid-2-phosphate Na) [1]	superoxide anion radical scavenging activity compared with pro-vitamin C (A2P) ([2]; ESR spin trapping, Table 4)	peroxide/hydrogen peroxide scavenging activity in skin cells (antioxidative effect) compared with pro-vitamin C (Asc2P-Na) [3]	radical scavenging activity in the superoxide test (in words; printed as hydroxyl radical scavenging activities) ([2]; ESR spin trapping, Table 4)
–	CCO [Ethanol, reference compound]	1.3	7.5	–	–	–	–	–
0.6	Hydroxylated fullerene [Sample F6]	–	–	significant	slightly superior to or equal to	equal to or more than	equal	–
–	Fullerene modified with PEG [Sample F3]	–	–	significant	slightly superior to or equal to	significantly superior	–	significant
